The values below come from EPA's ToxValDB 9.5.

In one data set the test system is Canidae. Particulars: oral, diet, M/F, Dog Other.
Data set [1] relates to Rattus norvegicus.
Data set [2] deals with Rattus norvegicus. The source holds these as a separate data set.
In data set [3] the test system is Rattus norvegicus. The note with it: oral, gavage.
Data set [4] concerns Rattus norvegicus. The note with it: subchronic, oral.
Data set [5] relates to Rattus norvegicus. Particulars: for LOEL / NOEL: Hershberger; for LEL: uterotrophic, Active.
In data set [6] the test system is Rattus norvegicus. Particulars: developmental; oral; gavage; M; Sprague-Dawley; generation: F1; F1: Testosterone (Testes).
[7] abbreviates: chronic, duration: 1 years, decreased prostate weight + Increased RBC Heinz bodies.
Where [8] appears, read: subchronic, duration: 90 days, sedation and tonoclonic spasms reduced food intake and body weight hematological effects.
Where [9] appears, read: short-term, duration: 28 days, M, Sprague-Dawley, Clinical Observation: Spontaneous locomotion decrease, Respiratory rate decrease, Incomplete eyelid opening SalivationLacrimation Stool ….
Where [10] appears, read: M, increased liver-to-body weight ratio and hepatic microsomal enzyme induction.
Setting [11] is: M/F, increased liver weight and centrilobular hypertrophy.
[12] abbreviates: duration: 5 days, oral, gavage, Sprague-Dawley, active + Androgenic + androgenic + advanced age of PPS, histopathology effects on reproductive tissues.
Setting [13] is: duration: 3 days, injection, subcutaneous.
Setting [14] is: duration: 10 days, injection, subcutaneous, Wistar, active + Androgenic + androgenic.
The mark [15] stands for this setting: duration: 10 days, oral, gavage, Sprague-Dawley, active + Antiandrogenic + anti-androgenic.

Values joined by “and” are separate entries in the source; they are usually repeats but may differ in a detail not shown here. Identical values can stand only once.

`CC(C)NC(=O)N1CC(=O)N(c2cc(Cl)cc(Cl)c2)C1=O`: in the data set with Canidae (setting [7]), the LEL came to 15 mg/kg-day and the NOEL worked out at 4.2 mg/kg-day.

In the data set on Canidae (setting [8]), `C[N+]1(C)CCCCC1.[Cl-]` [1,1-Dimethylpiperidinium chloride] gave an LEL of 75 mg/kg-day and an NOEL of 25 mg/kg-day.

As a reminder, the NOAEL is the highest tested level that showed no adverse finding. Take `ClCC(Cl)CCl` [1,2,3-Trichloropropane]: the NOAEL is 8 mg/kg-day with Rattus norvegicus [1] (chronic, duration: 120 days, oral, Blood: Decreased hematocrit + Blood: Decreased hemoglobin + Erythrocytes: Decreased count + Kidney: Lesions + Liver: Lesions + Whole body: …); 6.03 mg/m3 in the data set on Rattus norvegicus [2] (short-term, duration: 11 days, inhalation, M/F, Fischer 344, respiratory); below 15 mg/kg-day with Rattus norvegicus [3] (setting [9]). The NOEL is below 8 mg/kg-day with Rattus norvegicus [3] (chronic, duration: 17 weeks, M/F, Fischer 344, Deaths + Body Weight Changes: decrease + Hematology: Hct decrease, RBC decrease, Hgb decrease + Blood Chemistry: Na decrease, Alb increase, …) and below 15 mg/kg-day with Rattus norvegicus [3] (setting [9]).

A word on the LOAEL: it is the lowest tested level that showed an adverse finding. Consider `Brc1ccc(Br)c(Br)c1` [1,2,4-Tribromobenzene], for which the NOAEL in the data set on Rattus norvegicus [1] (subchronic, duration: 45 days, oral, diet, Liver: Altered weight + Liver: Enzyme induction) was determined as 5 mg/kg-day; with Rattus norvegicus [4] (setting [10]), 5 mg/kg-day. Moreover, the LOAEL with Rattus norvegicus [4] (setting [10]) amounted to 10 mg/kg-day.

Consider `C1=CCC=C1` [1,3-Cyclopentadiene], for which, in the data set on Rattus norvegicus [1] (chronic, duration: 194 days, inhalation, intermittent, Kidney: Lesions + Liver: Lesions), the NOEL was 87.3 mg/kg-day.

Turning to `CCCCO` [1-Butanol], the NOAEL is 125 mg/kg-day with Rattus norvegicus [1] (subchronic, duration: 13 weeks, oral, gavage, Central nervous system: Ataxia + Central nervous system: Hypoactivity); 125 mg/kg-day with Rattus norvegicus [4] (M/F, hypoactivity and ataxia). The LOAEL with Rattus norvegicus [4] (M/F, hypoactivity and ataxia) turned out to be 500 mg/kg-day.

`Oc1c(Cl)cc(Cl)c(Cl)c1Cl` [2,3,4,6-Tetrachlorophenol]: the NOAEL in the data set on Rattus norvegicus [1] (subchronic, duration: 90 days, oral, gavage, Liver: Centrilobular hypertrophy + Liver: Increased weight) is 25 mg/kg-day. In the data set with Rattus norvegicus [4] (setting [11]), the LOAEL is 100 mg/kg-day and the NOAEL was 25 mg/kg-day.

As to `N#CSCSc1nc2ccccc2s1` [2-(Thiocyanomethylthio)benzothiazole], in the data set with Rattus norvegicus [1] (subchronic, oral, diet, Stomach: Lesions), the NOEL worked out at 25 mg/kg-day.

`O=C=Nc1ccc(Cc2ccc(N=C=O)cc2)cc1` [4,4'-Diphenylmethane diisocyanate] returned an NOAEL with Rattus norvegicus [1] (chronic, duration: 24 months, inhalation, intermittent, Nasal cavity: Lesions) of 0.2 mg/m3.

Consider `C[C@]12CCC(=O)C=C1CC[C@@H]1[C@@H]2CC[C@@]2(C)[C@H]1CC[C@]2(C)O` [17-Methyltestosterone], for which the LOEL with Rattus norvegicus [5] (setting [12]) was 80 mg/kg-day and 100 mg/kg-day; in the data set on Rattus norvegicus [5] (duration: 7 days, injection, subcutaneous, Sprague-Dawley, androgenic) it was 0.16 mg/kg-day. Moreover, the NOEL in the data set with Rattus norvegicus [5] (setting [12]) amounted to 20 mg/kg-day. In addition, the LEL in the data set on Rattus norvegicus [5] (setting [13]) came to 10 mg/kg-day; in the data set on Rattus norvegicus [5] (duration: 4 days, injection, subcutaneous), 0.5 mg/kg-day; in the data set with Rattus norvegicus [5] (duration: 14 days, oral), 3 mg.

For the compound `CC[C@@H](C(C)C)[C@@H](O)[C@H](O)[C@@H](C)[C@H]1CC[C@H]2[C@@H]3COC(=O)[C@H]4C[C@H](O)[C@H](O)C[C@]4(C)[C@H]3CC[C@]12C` [28-Homobrassinolide], in the data set with Rattus norvegicus [5] (setting [14]), the LOEL was determined as 4 mg/kg-day and the NOEL was determined as 0.4 mg/kg-day.

The compound `CC/C(=C(\c1ccc(O)cc1)c1ccc(OCCN(C)C)cc1)c1ccccc1` [(Z)-4-Hydroxytamoxifen] registered an LEL with Rattus norvegicus [5] (setting [13]) of 0.00016 mg/day.

Turning to `[O]=[Sb][O][Sb](=[O])=[O]` [Antimony oxide (Sb2O4)], in the data set on Rattus norvegicus [1] (chronic, oral, drinking water, Blood: Altered chemistries + Whole body: Increased mortality), the LOAEL amounted to 0.44 mg/kg-day.

In the data set with Rattus norvegicus [5] (setting [13]), `c1ccc2cc3c(ccc4ccccc43)cc2c1` [Benz(a)anthracene] gave an LEL of 1 mg/kg-day.

In turn, `FB(F)F` [Boron trifluoride] showed an NOAEL with Rattus norvegicus [1] (subchronic, duration: 13 weeks, inhalation, intermittent, Kidney: Necrosis) of 6 mg/m3.

For the compound `CCOP(=S)(OCC)Oc1cc(C)nc(C(C)C)n1` [Diazinon], the NOAEL stood at 0.09 mg/kg-day with Rattus norvegicus [1] (subchronic, duration: 42 days, oral, diet, Blood: Decreased cholinesterase activity); 0.065 mg/kg-day in the data set on Rattus norvegicus [2] (chronic, duration: 98 weeks, oral, diet, M/F, Sprague-Dawley, neurological); 0.6 mg/kg-day in the data set on Rattus norvegicus [2] (chronic, duration: 92 days, oral, diet, F, Wistar, neurological); 1.57 mg/m3 with Rattus norvegicus [2] (short-term, duration: 3 weeks, inhalation, nose only, M/F, albino, neurological).

As to `CC(C)CCCCCCOC(=O)c1ccccc1C(=O)OCCCCCCC(C)C` [Diisononyl phthalate], in the data set on Rattus norvegicus [5] (setting [15]), the LOEL came out at 500 mg/kg-day and the NOEL was found to be 100 mg/kg-day. The NOEL with Rattus norvegicus [6] was 750 mg/kg-day.
